Data: patent US20260234173A1, “STRUCTURED MOLECULAR VECTORS FOR ANTI-INFLAMMATORY COMPOUNDS AND USES THEREOF” (Universite Claude Bernard Lyon 1, priority 2019, published 2026)

What was measured:
[1] = system: fully amygdala-kindled rats; experiment: Seizure severity in fully amygdala-kindled rats (Racine's scale); type: in vivo, rat
Procedure: All animal procedures were in compliance with the guidelines of the European Union (directive 2010-63), regulating animal experimentation, and have been approved by the ethical committee of the Claude Bernard Lyon 1 University. Male Sprague-Dawley rats (Envigo, France) were used in these experiments. They were housed in a temperature-controlled room (23±1° C.) under diurnal lighting conditions (lights on from 6 a.m to 6 p.m). Rats arrived 15 days prior to the beginning of the experiments. They were maintained in groups of 2 in 800 cm2 plastic cages comprising minimal environmental enrichment (nesting cardboard material, wooden gnowing sticks), and had free access to food and water.
For surgical implantation of kindling electrodes, rats weighing 220-240 g were anesthetized using isoflurane (5% induction; 2% maintenance) and treated with the analgesic drug buprenorphine (0.050 mg/kg, i.m.). Their heads were positioned in a stereotaxic apparatus with the incisor bar set at −3.3 mm. Burr holes were drilled for the placement of three stainless steel jewelers' screws in the left parietal, right frontal and occipital bones, and over the site of implantation of the electrode used for amygdala kindling. This stimulation and recording electrode consisted of a teflon-isolated bipolar stainless-steel electrode aimed at the right basolateral amygdala (stereotaxic coordinates relative to Bregma: anterior-posterior, −2.8 mm; lateral, +4.8 mm; dorso-ventral, −8.5 mm). The screws placed above the parietal cortex and the frontal cortex served as recording electrodes, and the placed above the cerebellum served as grounding. Bipolar, recording and grounding electrodes were connected to a plug anchored to the skull with dental acrylic cement.
Electrical stimulation via the kindling electrode was initiated after a recovery period of 1 week after surgery, and was performed at the same time of the day (between 9:00 and 11:00 A.M. and then between 4:00 and 6:00 P.M.) to avoid intraday variance between animals. Constant current stimulations (500 μA, biphasic square-wave pulses, 50 pulses/s for 2 s) were delivered twice daily until at least 5 fully kindled seizures (secondarily generalized stage 5 seizures) were elicited. Seizure severity was classified behaviorally according to Racine's scale: stage 1, immobility, slight facial clonus (eye closure, twitching of vibrissae, sniffing); stage 2, head nodding associated with more severe facial clonus; stage 3, clonus of one forelimb; stage 4, rearing, often accompanied by bilateral forelimb clonus; stage 5, tonic-clonic seizure accompanied by loss of balance and falling.
To evaluate the effect of SYN-PN on seizure severity, SYN-PN was prepared in saline and injected intraperitoneally at 5, 10 or 50 mg/kg, 45 min prior to electrical stimulation in fully kindled rats. Briefly, the day after the last stage 5 seizure, on day 1, the rats received a first dose of SYN-PN (5 mg/kg) and were stimulated 45 minutes later. At D2 and D5, they were stimulated without SYN-PN injection to evaluate the residual effect of the 5 mg/kg dose. On D6, they received a second dose of SYN-PN (10 mg/kg) and were stimulated 45 minutes later. They were then simulated at D7 and D8 to evaluate the residual effect of the 10 mg/kg dose. On D9, rats received a third dose of SYN-PN (50 mg/kg) and were stimulated 45 minutes later. They were then simulated at D10 and D11 to evaluate the residual effect of the 50 mg/kg dose. Finally, they received 1) a daily dose of SYN-PN at 5 mg/kg from D12 to D15 and were stimulated at D16; 2) a daily dose of SYN-PN at 10 mg/kg from D19 to D22 and were stimulated at D23; and 3) a daily dose of SYN-PN at 20 mg/kg from D26 to D29 and were stimulated at D30. The treatments were then stopped. However, to assess the persistence of the effects of this series of treatments, rats continued to be stimulated at 7, 15, 42 and 56 days after the last treatment at 20 mg/kg.

[2] = system: LPS-induced neuroinflammation (hippocampus and neocortex); experiment: LPS-induced neuroinflammation in vivo in rats (RT-qPCR, Neuroinflammation Index); set-up: species or system rat; settings: 6 h post-LPS
[3] = system: Pilo-SE-induced inflammation in the hippocampus; experiment: Resolution of inflammation in hippocampus following pilocarpine-induced status epilepticus (Pilo-SE); type: in vivo, rat; settings: 2 mg/kg i.p. after 2 h of SE, hippocampus 9 h post-SE
Procedure: Male Sprague-Dawley rats (Envigo, The Netherlands) were subjected to Pilo-SE at 42 days of age (185 g). SE was triggered by pilocarpine hydrochlorate (350 mg/kg, i.p.), 30 min after the administration of scopolamine methylnitrate (1 mg/kg, s.c.), used to reduce peripheral side effects of pilocarpine. After 2 h of continuous SE, rats were administered with diazepam (10 mg/kg, i.p.) to stop SE, and then immediately treated with SYN (2 mg/kg, i.p.), SYN-Pn (2 mg/kg, i.p.) in 300 μL of NaCl. Non-treated rats subjected to Pilo-SE were injected with 300 μL of NaCl (i.p.) instead of SYN or SYN-Pn. All rats received a second administration of diazepam (5 mg/kg, s.c.), 1 h after the first one, and sacrificed 9 h post-SE. The brains were collected, the hippocampus microdissected on ice, the RNA extracted and RT-qPCR performed as described above using the primer pairs shown in Table 1. The time at which rats were sacrificed was chosen based on our preliminary experiments that allowed us to determine that the peak of brain inflammation was observed 7-12 hours after the onset of SE.

With `CCC=CCC=CCC=CCC=CCC=CCC=CCCC(=O)NCCP(=O)(O)O` [synaptamide phosphonate] the “rats with absence of seizures 15 days after stopping treatment” value ([1]; all rats (n=15)) was 7/15, the “decrease of mean seizure severity” value ([1]; all rats (n=15), D1, 5 mg/kg i.p. 45 min before stimulation) was 19.0±7.9% and the “seizure severity compared to D0” value ([1]; all rats (n=15), D2, day after 5 mg/kg, no injection) was −23.1±8.1%. The “effect of 5 mg/kg on seizure severity at D5” value ([1]; all rats (n=15), D5, no injection) was “lost”, the “seizure severity compared to D0” value ([1]; all rats (n=15), D6, 10 mg/kg i.p. 45 minutes before stimulation) was “not significantly different from that at D0” and the “seizure severity compared to D0” value ([1]; all rats (n=15), D16, after daily 5 mg/kg from D12) was −42.0±9.2%. For the same compound, the “seizure severity compared to D0” value ([1]; all rats (n=15), the next day and the day after 10 mg/kg (D7-D8), at the most) was −39.4±11.1%, the “delay of the maximum effect on seizure severity after administration” value ([1]; any dose) was 24 to 48 h and the “rats responding to 5 mg/kg” value ([1]; decrease in seizure severity first observed at 5 mg/kg i.p.) was 8/15. The “rats responding to 10 mg/kg” value ([1]; decrease in seizure severity first observed at 10 mg/kg i.p.) was 3/15, the “rats responding to 50 mg/kg” value ([1]; decrease in seizure severity first observed at 50 mg/kg i.p.) was 4/15 and the “seizure severity compared to D0” value ([1]; rats responding to 5 mg/kg (n=8), D16 after daily 5 mg/kg) was −87.0±13.0%. For the same compound, the “seizure severity compared to D0” value ([1]; rats responding to 5 mg/kg (n=8), same day of administration) was −36.4±11.7%, the “average severity of seizures on increasing the daily dose from 5 to 10, then to 20 mg/kg” value ([1]; rats responding to 5 mg/kg, 4 daily doses each) was “did not change the average severity of seizures” and the “rats remaining at stage 0” value ([1]; rats responding to 5 mg/kg, D16 after daily 5 mg/kg) was 7/8. The “rats free from seizures” value ([1]; rats responding to 5 mg/kg, after 4 daily doses of 5 mg/kg) was 7/8, the “rats free from seizures” value ([1]; rats responding to 5 mg/kg, after 4 daily doses of 10 mg/kg) was 4/8 and the “decrease of seizure severity compared to D0” value ([1]; rats responding to 10 mg/kg (n=3)) was “not significantly different from DO”. The “severity reduction at D16” value ([1]; rats responding to 10 mg/kg (n=3), after 5 mg/kg for 4 days) was “maintained”, the “decrease of seizure severity compared to D0” value ([1]; rats responding to 50 mg/kg (n=4)) was “too variable to observe a significant effect” and the “seizure reduction at D16” value ([1]; rats responding to 50 mg/kg (n=4), after 5 mg/kg for 4 days) was “only transient and lost at D16”. The “duration of the protective effect against seizures after stopping treatment” value ([1]; rats responding to 50 mg/kg, after high doses (20 mg/kg)) was “up to 15 days”, the “persistence of seizure freedom after stopping treatment” value ([1]; substantial population of rats) was “free of seizures, even after almost two months of stopping treatment” and the “LPS-mediated induction of transcripts encoding neuroinflammatory markers” value ([2]; 2 mg/Kg synaptamide equivalent i.p. one minute after LPS 1 mg/Kg, 21-day-old rats) was “partially prevent”. For the same compound, the “reduction of the Neuroinflammatory Index measured both in the hippocampus and the neocortex” value ([2]; 2 mg/Kg synaptamide equivalent i.p. one minute after LPS) was ~ 70%, the “TNFα-mRNA induction in response to Pilo-SE” value [3] was “significant effect” and the “index integrating IL1β and TNFα: peak of the inflammatory response following Pilo-SE” value [3] was “improved effect”. For the same compound, the “induction of IL1β mRNA in response to Pilo-SE” value ([3]; 42-day-old rats) was “reduced”.
